Reference: patent US12138312B2, “Cell-penetrating peptides for antisense delivery” (Sarepta Therapeutics, Inc., priority 2017, dated 2024)
Read-outs that look alike come from different tables or passages of the source. No end group written: not given here.

System: HeLa 654 cells
Experiment: eGFP exon-skipping reporter assay, flow cytometry analysis of GFP fluorescence
Format: cell-based
[1] = eGFP fluorescence of CPP-PMO IVS2-654 conjugate compared to unconjugated PMO, 5 μM, 22 hours, MEM with 10% FBS
[2] = […], 5 μM, 22 hours, MEM with 10% FBS

| Substance | Activity Relative to PMO [1] | Activity Relative to PMO [2] | other results |
| --- | --- | --- | --- |
| SAP(E) | 0.8 | – | – |
| Buforin 2 | 1.9 | – | – |
| Transportan 10 | – | 0.8 | – |
| Pyrrhocoricin (VDKGSYLPRPTPPRPIYNRN; ends and bridges not checked; also: conjugated to PMO cargo; UniProt P37362 1-20, looked up) | – | – | Activity Relative to PMO: 1.4 |
| λN(1-22): PMO IVS2-654 conjugated to CPP MDAQTRRRERRAEKQAQWKAAN (also: conjugated to PMO IVS2-654 cargo; UniProt P03045 1-22, looked up, fragment) | – | 1.4 | – |
| Penetratin | 4.2 | – | – |
| Melittin | – | 4.5 | – |
